What was measured:
[1] = manufacturer reported; cited from earlier work
[2] = test system: Balb/cJ recipients and C57BL/6 donors; experiment: MHC-mismatched allogeneic BMT, donor cell engraftment by FACS of peripheral blood (Balb/cJ recipients, C57BL/6 donors); type: in vivo, mice; conditions: 4 Gy RIC TBI, 90 mg/kg oral gavage twice daily Day -5 through Day +2, 4 weeks post-BMT, n=7
Experimental: (§1) In one exemplary method, mouse models of human allogeneic bone marrow transplant events were prepared. In brief, major histocompatibility complex (MHC)-mismatched bone marrow transplants (BMTs, HCT)—which model human allogeneic BMTs—were performed in mice. Mice used in this exemplary method were the C57BL/6 mouse strain (which express the MHC marker H2K^b) and the Balb/cJ strain (which express the MHC marker H2K^d). Both mouse strains were maintained by homozygous breeding according to established vivarium practices. Mice approximately 6-10 weeks of age were used for both recipients and donors. Donors and recipients were matched in gender (male recipient mice receive cells from male donors while female recipients receive cells from female donors).
(§2) In another exemplary method, BMT was performed by isolating bone marrow cells from the bones of euthanized donor mice using a method similar to previous methods (Amend et al., J Vis Exp. 2016 Apr. 14; (110):53936). […] Viable cells (which excluded Trypan Blue) were counted using a hematocytometer. […] Stained cells were resuspended in PBS and evaluated via Fluorescent-Activated Cell Sorting (FACS) on a Cytek Aurora cytometer. FACS data was analyzed using FloJo software. […] Cells which were negative for Ter119 (RBCs) and positive for CD45 (hematopoietic cells) were further analyzed. […]

[3] = test system: recipient and donor NK and T cells (mouse spleen cells); experiment: Effect on recipient versus donor NK and T cells in spleen after BMT (FACS); type: in vivo, mice; conditions: spleen cells after BMT (data not shown)
Experimental: In another exemplary method, BMTs were performed and assessed to determine the effects of JAK inhibitors on recipient compared to donor NK and T cells as outlined in FIG. 6. In this exemplary method, BMTs were performed in mice as described in Example 1 wherein C57BL/6 mice were the transplant donors while Balb/cJ mice served as stem cell recipients. Recipient mice were treated with Ruxolitinib and given RIC TBI followed by BMT as previously described in the examples herein. On Day +1 and Day +3 post-BMT, a portion of the recipient mice were euthanized, and their spleens were harvested. The spleen cells were prepared into a single cell suspension, subjected to RBC lysis, stained (using previously referenced markers in addition to T-cell subset markers, CD4 and CD8) and analyzed by FACS as described in the examples herein.

[4] = test system: C57BL/6 recipients and Balb/cJ donors; experiment: MHC-mismatched allogeneic BMT, donor cell engraftment by FACS of peripheral blood (C57BL/6 recipients, Balb/cJ donors); type: in vivo, mice; conditions: 6.5 Gy RIC TBI
Experimental: as §1, §2

Row | Structure (SMILES) | solubility in DMSO [1] | donor cell engraftment (mice engrafted) [2] | effect on donor T cells [3] | donor cell engraftment (mice engrafted) ([4]; 180 mg/kg Day -5 through Day +2, 4 weeks post-BMT, n=6) | donor cell engraftment (mice engrafted) ([4]; 270 mg/kg Day -5 through Day +2, 4 weeks post-BMT, n=3)
1 | N#CC[C@H](C1CCCC1)n1cc(-c2ncnc3[nH]ccc23)cn1 [Ruxolitinib phosphate] | 200 mg/mL |  |  |  | 
2 | N#CC[C@H](C1CCCC1)n1cc(-c2ncnc3[nH]ccc23)cn1 [ruxolitinib] |  | 100% | no significant effect | 100% | 100%
